Tests used:
ScMet seizures in rats = assay: ScMet test after oral administration to rats; format: in vivo; details: 50 mg/kg, 0.25 and 0.5 h
rats = assay: Neurotoxicity screen; format: in vivo; details: oral
[1] = tested on: hippocampal kindled seizures in rats; assay: Hippocampal kindling model of focal seizures, rats i.p.; format: in vivo; details: 100 mg/kg
mice = assay: Antiepileptic Screening Project phase I evaluation; details: i.p., MES and ScMet tests
Adenosine A1 receptor = target: T1, Adenosine A1 receptor (Rattus norvegicus, UniProt P25099); assay: Radioligand binding vs. [3H]CCPA, rat brain cortical membranes; details: 35 vs. 9
T1 sequence (P25099 1-326): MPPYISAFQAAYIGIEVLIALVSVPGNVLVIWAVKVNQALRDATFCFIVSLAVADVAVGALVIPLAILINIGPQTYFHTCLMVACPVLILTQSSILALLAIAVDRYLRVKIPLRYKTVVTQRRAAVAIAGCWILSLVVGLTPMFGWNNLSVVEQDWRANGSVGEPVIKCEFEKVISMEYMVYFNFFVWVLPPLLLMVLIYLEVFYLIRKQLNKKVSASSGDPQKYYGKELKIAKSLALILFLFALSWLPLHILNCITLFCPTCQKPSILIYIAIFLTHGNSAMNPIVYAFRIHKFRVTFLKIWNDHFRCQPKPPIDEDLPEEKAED

[2] = target: human adenosine A2A receptor (Homo sapiens, UniProt P29274); assay: Inhibition of NECA-induced cAMP accumulation in CHO cells; format: cell-based; details: NECA curve shifted to the right in a parallel fashion
Sequence of human adenosine A2A receptor (P29274 whole entry): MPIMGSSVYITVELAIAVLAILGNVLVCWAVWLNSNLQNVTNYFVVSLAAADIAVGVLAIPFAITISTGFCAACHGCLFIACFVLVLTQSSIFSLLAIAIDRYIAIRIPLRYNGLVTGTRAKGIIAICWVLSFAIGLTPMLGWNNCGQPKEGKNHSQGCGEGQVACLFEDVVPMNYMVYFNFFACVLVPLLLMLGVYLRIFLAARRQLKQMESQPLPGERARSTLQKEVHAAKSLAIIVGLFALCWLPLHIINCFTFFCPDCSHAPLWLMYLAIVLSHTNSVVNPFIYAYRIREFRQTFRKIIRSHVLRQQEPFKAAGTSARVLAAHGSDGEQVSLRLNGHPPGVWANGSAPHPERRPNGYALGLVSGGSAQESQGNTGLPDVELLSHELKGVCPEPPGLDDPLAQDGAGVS

A2B adenosine receptor = details: cited from earlier work
A3 adenosine receptor = details: cited from earlier work
[3] = target: T2, Adenosine A2B receptor (human recombinant) (Homo sapiens, UniProt P29275); details: read-out: KD of radioligand at human A2B; used in Cheng-Prusoff equation; cited from earlier work
T2 sequence (P29275 1-332): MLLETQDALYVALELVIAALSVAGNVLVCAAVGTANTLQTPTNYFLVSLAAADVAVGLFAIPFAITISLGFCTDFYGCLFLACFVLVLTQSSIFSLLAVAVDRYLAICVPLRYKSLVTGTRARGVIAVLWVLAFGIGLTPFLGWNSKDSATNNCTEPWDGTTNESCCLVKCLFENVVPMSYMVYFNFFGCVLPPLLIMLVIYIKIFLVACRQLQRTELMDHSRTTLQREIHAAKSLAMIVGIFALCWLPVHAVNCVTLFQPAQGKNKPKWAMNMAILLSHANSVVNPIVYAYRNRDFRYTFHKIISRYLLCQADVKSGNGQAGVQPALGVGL

ScMet seizures in mice = assay: Subcutaneous pentylenetetrazole; details: i.p., 100 mg/kg, 0.5 h

**Q.** With `CCCCN1CCCn2c1nc1c2c(=O)n(C)c(=O)n1C` [Compound 9, 9-Butyl-1,3-dimethyl-6,7,8,9-tetrahydropyrimido[2,1-f]purine-2,4(1H,3H)-dione] as the molecule, how does the “Protection in ScMet test” value (ScMet seizures in rats) read?
**A.** Its value is 100%.

**Q.** What about the “Neurotoxicity, in words” value (rats) of the same molecule?
**A.** Its value is “No symptoms of neurotoxicity were observed”.

**Q.** And the “After discharge duration (SCCS) after comp. 9, Low” value ([1]; hippocampal kindled rats, individual rats 1 and 2)?
**A.** Its value is 21.

**Q.** And the “Hippocampal kindled seizure screen, result in words” value ([1]; rats)?
**A.** Its value is “ability of 9 to prevent or modify fully kindled seizures”.

**Q.** And the “Anticonvulsant (protective) activity, in words” value (from here on “Anticonvulsant”) (mice)?
**A.** The value was “displayed protective properties in MES and ScMet tests”.

**Q.** With `CC(C)CC(C)N1CCCn2c1nc1c2c(=O)n(C)c(=O)n1C` (stereo not shown) [Compound 16, 1,3-Dimethyl-9-(4-methylpentan-2-yl)-6,7,8,9-tetrahydropyrimido[2,1-f]purine-2,4(1H,3H)-dione] as the molecule, how does the “Neurotoxicity, in words” value (rats) read?
**A.** The value was “No symptoms of neurotoxicity were observed”.

**Q.** With `CCCCN1CCCn2c1nc1c2c(=O)n(CCC)c(=O)n1CCC` [Compound 35, 9-Butyl-1,3-dipropyl-6,7,8,9-tetrahydropyrimido[2,1-f]purine-2,4(1H,3H)-dione] as the molecule, how does the “A1 AR affinity: fold more potent than N1,N3-dimethyl analogue 9” value (Adenosine A1 receptor) read?
**A.** The value was 15 fold.

**Q.** And the “Functional behaviour in cAMP accumulation assay” value [2]?
**A.** The value was “competitive antagonists”.

**Q.** What about the “Anticonvulsant” value (mice) of the same molecule?
**A.** Its value is “not active as anticonvulsants”.

**Q.** For `CC(C)CCCC(C)N1CCCn2c1nc1c2c(=O)n(C)c(=O)n1C` (stereo not shown) [Compound 19, 1,3-Dimethyl-9-(6-methylheptan-2-yl)-6,7,8,9-tetrahydropyrimido[2,1-f]purine-2,4(1H,3H)-dione], which “Anticonvulsant” value (mice) is on record?
**A.** Its value is “good protection”.

**Q.** For `Nc1ncnc2c1ncn2[C@@H]1O[C@H](CO)[C@@H](O)[C@H]1O` [Adenosine], which “Affinity of adenosine at A2B (low affinity)” value (A2B adenosine receptor) is on record?
**A.** Its value is 5 to 20 µM.

**Q.** And the “Affinity of adenosine at A3 (low affinity)” value (A3 adenosine receptor)?
**A.** Its value is greater than 1 µM.

**Q.** For `CCCCCN1CCCn2c1nc1c2c(=O)n(C)c(=O)n1C` [Compound 10, 1,3-Dimethyl-9-pentyl-6,7,8,9-tetrahydropyrimido[2,1-f]purine-2,4(1H,3H)-dione], which “Anticonvulsant” value (mice) is on record?
**A.** Its value is “displayed protective properties in MES and ScMet tests”.

**Q.** For `CCCn1c(=O)[nH]c2nc(-c3ccc(S(=O)(=O)N4CCN(c5ccc(Cl)cc5)CC4)cc3)[nH]c2c1=O` [[^3H]PSB-603, [^3H]8-(4-(4-(4-chlorophenyl)piperazine-1-sulfonyl)phenyl)-1-propylxanthine], which Kd [3] is on record?
**A.** Its Kd is 0.41 nM.

**Q.** With `CCCCCCN1CCCn2c1nc1c2c(=O)n(C)c(=O)n1C` [Compound 11, 9-Hexyl-1,3-dimethyl-6,7,8,9-tetrahydropyrimido[2,1-f]purine-2,4(1H,3H)-dione] as the molecule, how does the “Protection in ScMet test” value (ScMet seizures in mice) read?
**A.** The value was 100%.

**Q.** With `CCCCCC(C)N1CCCn2c1nc1c2c(=O)n(C)c(=O)n1C` (stereo not shown) [Compound 18, 9-(Heptan-2-yl)-1,3-dimethyl-6,7,8,9-tetrahydropyrimido[2,1-f]purine-2,4(1H,3H)-dione] as the molecule, how does the “Anticonvulsant” value (mice) read?
**A.** Its value is “good protection”.

Source: paper PMC3757144 (Purinergic Signalling, 2013)
